Test results taken from patent US9809574B2, “Isoindoline or isoquinoline compounds, a process for their preparation and pharmaceutical compositions containing them” (LES LABORATOIRES SERVIER, priority 2013, dated 2017).
Counter-ions that a name gives are not always drawn.

Legend:
[1] = target: Bcl-2 protein (histag-Bcl-2, UniProtKB P10415) (Homo sapiens (Human), UniProt P10415); experiment: Inhibition of Bcl-2 by the fluorescence polarisation technique; type: binding; settings: fluorescence polarisation test; incubation for 2 hours; read-out: IC50 (nM) Bcl-2 FP
Source text: For partial inhibitors, the percentage fluorescence polarisation inhibition for a given concentration of the test compound is indicated.

[2] = tested on: RS4; 11 leukaemia cell line; experiment: In vitro cytotoxicity, Microculture Tetrazolium Assay (MTT); type: cell-based; settings: Homo sapiens, 11 cells exposed for 48 hours
Procedure: The cytotoxicity studies were carried out on the RS4; 11 leukaemia cell line and on H146 small Cell Lung Carcinoma cell line. The cells are distributed onto microplates and exposed to the test compounds for 48 hours. The cell viability is then quantified by a colorimetric assay, the Microculture Tetrazolium Assay (Cancer Res., 1987, 47, 939-942).

Bcl-2 protein, sequence (P10415 whole entry): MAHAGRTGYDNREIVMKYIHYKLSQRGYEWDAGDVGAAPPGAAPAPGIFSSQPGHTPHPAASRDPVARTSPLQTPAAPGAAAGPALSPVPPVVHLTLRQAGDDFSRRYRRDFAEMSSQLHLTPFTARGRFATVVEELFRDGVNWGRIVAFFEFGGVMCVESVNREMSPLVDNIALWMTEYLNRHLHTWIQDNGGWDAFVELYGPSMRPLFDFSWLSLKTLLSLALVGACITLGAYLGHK

IC50 [1] | Structure (SMILES) | IC50 [2]
3.4 nM | Cc1c(C(=O)N(C)c2ccc(O)cc2)cc(-c2cc3c(cc2C(=O)N2Cc4ccccc4C[C@H]2C)CN(C(=O)OC2CCCCC2)CC3)n1C [Example 790, Cyclohexyl 6-{4-[(4-hydroxyphenyl)(methyl)carbamoyl]-1,5-dimethyl-1H-pyrrol-2-yl}-7-[(3R)-3-methyl-1,2,3,4-tetrahydroisoquinoline-2-carbonyl]-1,2,3,4-tetrahydroisoquinoline-2-carboxylate] | 20 nM
20 nM | C[C@@H]1Cc2ccccc2CN1C(=O)c1cc2c(cc1-c1cc(C(=O)N(C)c3ccc(O)cc3)c3n1CCCC3)CN(C(=O)C1CC1)C2 [Example 20, 3-{2-Cyclopropanecarbonyl-6-[(3R)-3-methyl-1,2,3,4-tetrahydroisoquinoline-2-carbonyl]-2,3-dihydro-1H-isoindol-5-yl}-N-(4-hydroxyphenyl)-N-methyl-5,6,7,8-tetrahydroindolizine-1-carboxamide] | > 150 nM
21 nM | Cc1c(C(=O)N(C)c2ccc(O)cc2)cc(-c2cc3c(cc2C(=O)N2Cc4ccccc4C[C@H]2CN2CCOCC2)CN(C(=O)O[C@@H]2C[C@H](C)CC[C@H]2C(C)C)CC3)n1C [Example 797, (1R,2S,5R)-5-Methyl-2-(propan-2-yl)cyclohexyl 6-{4-[(4-hydroxyphenyl)(methyl)carbamoyl]-1,5-dimethyl-1H-pyrrol-2-yl}-7-[(3S)-3-(morpholin-4-ylmethyl)-1,2,3,4-tetrahydroisoquinoline-2-carbonyl]-1,2,3,4-tetrahydroisoquinoline-2-carboxylate] | 125 nM
5.1 nM | C[C@@H]1Cc2ccccc2CN1C(=O)c1cc2c(cc1-c1cc(C(=O)N(C)c3ccc(O)cc3)c3n1CCCC3)CN(C(=O)CNc1ccccc1)C2 [Example 87, N-(4-Hydroxyphenyl)-N-methyl-3-{6-[(3R)-3-methyl-1,2,3,4-tetrahydroisoquinoline-2-carbonyl]-2-[2-(phenylamino)acetyl]-2,3-dihydro-1H-isoindol-5-yl}-5,6,7,8-tetrahydroindolizine-1-carboxamide] | 43 nM
7.3 nM | CN(C(=O)c1cc(-c2cc3c(cc2C(=O)N2Cc4ccccc4C[C@H]2CN2CCOCC2)CN(C(=O)Cc2ccccc2)C3)n2c1CCCC2)c1ccc(O)cc1 [Example 8, N-(4-Hydroxyphenyl)-N-methyl-3-{6-[(3S)-3-(morpholin-4-ylmethyl)-1,2,3,4-tetrahydroisoquinoline-2-carbonyl]-2-(2-phenylacetyl)-2,3-dihydro-1H-isoindol-5-yl}-5,6,7,8-tetrahydroindolizine-1-carboxamide; hydrochloride salt] | 98 nM
13 nM | CC(Cc1ccccc1)C(=O)N1Cc2cc(C(=O)N3Cc4ccccc4C[C@H]3C)c(-c3cc(C(=O)N(C)c4ccc(O)cc4)c4n3CCCC4)cc2C1 (stereo partly drawn) [Example 23, 3-[2-(2-Benzylpropanoyl)-6-[(3R)-3-methyl-1,2,3,4-tetrahydroisoquinoline-2-carbonyl]-2,3-dihydro-1H-isoindol-5-yl]-N-(4-hydroxyphenyl)-N-methyl-5,6,7,8-tetrahydroindolizine-1-carboxamide] | 61 nM
6.2 nM | C[C@H](C(=O)N1CCc2cc(-c3cc(C(=O)N(C)c4ccc(O)cc4)c4n3CCCC4)c(C(=O)N3Cc4ccccc4C[C@H]3C)cc2C1)c1ccccc1 [Example 90, N-(4-Hydroxyphenyl)-N-methyl-3-{7-[(3R)-3-methyl-1,2,3,4-tetrahydroisoquinoline-2-carbonyl]-2-[(2S)-2-phenylpropanoyl]-1,2,3,4-tetrahydroisoquinolin-6-yl}-5,6,7,8-tetrahydroindolizine-1-carboxamide] | 39 nM
2.9 nM | CCCCN(C(=O)c1cc(-c2cc3c(cc2C(=O)N2Cc4ccccc4C[C@H]2CN2CCOCC2)CN(C(=O)Cc2ccccc2)CC3)n(C)c1C)c1ccc(O)cc1 [Example 232, N-Butyl-N-(4-hydroxyphenyl)-1,2-dimethyl-5-{7-[(3S)-3-(morpholin-4-ylmethyl)-1,2,3,4-tetrahydroisoquinoline-2-carbonyl]-2-(2-phenylacetyl)-1,2,3,4-tetrahydroisoquinolin-6-yl}-1H-pyrrole-3-carboxamide] | 11 nM
108 nM | C[C@@H]1Cc2ccccc2CN1C(=O)c1cc2c(cc1-c1cc(C(=O)N(C)c3ccc(O)cc3)c3n1CCCC3)CN(C(=O)OC(C)(C)C)C2 [Example 13, tert-Butyl 5-{1-[(4-hydroxyphenyl)(methyl)carbamoyl]-5,6,7,8-tetrahydroindolizin-3-yl}-6-[(3R)-3-methyl-1,2,3,4-tetrahydroisoquinoline-2-carbonyl]-2,3-dihydro-1H-isoindole-2-carboxylate] | 729 nM
2.4 nM | C[C@@H]1Cc2ccccc2CN1C(=O)c1cc2c(cc1-c1cc(C(=O)N(C)c3ccc(O)cc3)c3n1CCCC3)CCN(C(=O)Cc1ccc(C#N)cc1)C2 [Example 53, 3-{2-[2-(4-Cyanophenyl)acetyl]-7-[(3R)-3-methyl-1,2,3,4-tetrahydroisoquinoline-2-carbonyl]-1,2,3,4-tetrahydroisoquinolin-6-yl}-N-(4-hydroxyphenyl)-N-methyl-5,6,7,8-tetrahydroindolizine-1-carboxamide] | 5 nM

Structure (SMILES) | IC50 [1] | IC50 [2]
Cc1c(C(=O)N(C)c2ccc(O)cc2)cc(-c2cc3c(cc2C(=O)N2Cc4ccccc4C[C@H]2CN2CCOCC2)CN(C(=O)Oc2ccc(Cl)c(Cl)c2)CC3)n1C [Example 573, 3,4-Dichlorophenyl 6-{4-[(4-hydroxyphenyl)(methyl)carbamoyl]-1,5-dimethyl-1H-pyrrol-2-yl}-7-[(3S)-3-(morpholin-4-ylmethyl)-1,2,3,4-tetrahydroisoquinoline-2-carbonyl]-1,2,3,4-tetrahydroisoquinoline-2-carboxylate] | 18 nM | 43 nM
CCN(C(=O)c1cc(-c2cc3c(cc2C(=O)N2Cc4ccccc4C[C@H]2CN2CCOCC2)CN(C(=O)Oc2ccccc2)CC3)n(C)c1C)c1ccc(O)cc1 [Example 185, Phenyl 6-{4-[ethyl(4-hydroxyphenyl)carbamoyl]-1,5-dimethyl-1H-pyrrol-2-yl}-7-[(3S)-3-(morpholin-4-ylmethyl)-1,2,3,4-tetrahydroisoquinoline-2-carbonyl]-1,2,3,4-tetrahydroisoquinoline-2-carboxylate] | 3.7 nM | 4.5 nM
CN(C)C(=O)c1ccc(OC(=O)N2CCc3cc(-c4cc(C(=O)N(C)c5ccc(O)cc5)c5n4CCCC5)c(C(=O)N4Cc5ccccc5C[C@H]4CN4CCOCC4)cc3C2)cc1 [Example 142, 4-(Dimethylcarbamoyl)phenyl 6-{1-[(4-hydroxyphenyl)(methyl)carbamoyl]-5,6,7,8-tetrahydroindolizin-3-yl}-7-[(3S)-3-(morpholin-4-ylmethyl)-1,2,3,4-tetrahydroisoquinoline-2-carbonyl]-1,2,3,4-tetrahydroisoquinoline-2-carboxylate] | 5.5 nM | 53 nM
Cc1c(C(=O)N(C)c2ccccc2)cc(-c2cc3c(cc2C(=O)N2Cc4ccccc4C[C@H]2CN2CCOCC2)CN(C(=O)Oc2ccc(C#N)cc2)CC3)n1C [Example 152, 4-Cyanophenyl 6-{1,5-dimethyl-4-[methyl(phenyl)carbamoyl]-1H-pyrrol-2-yl}-7-[(3S)-3-(morpholin-4-ylmethyl)-1,2,3,4-tetrahydroisoquinoline-2-carbonyl]-1,2,3,4-tetrahydroisoquinoline-2-carboxylate] | 6.5 nM | 29 nM
